System: K-562 leukemia growth, % test/control
Experiment: Anticancer human tumor K-562 cell line growth inhibition;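 further: spheroids exposed to compounds for 7 days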;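 on viability, T/C: 100% = DMSO vehicle wells and lower values mean fewer viable cells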
Settings: spheroids with HUVEC and MSC; for IC50: curve of first compound; for viability, T/C: stronger effect = lower value
Summary of the method: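 Drug combinations with the LSD1 inhibitor iadademstat tested on tumor cells co-cultured as spheroids with endothelial cells and mesenchymal stem cells. Concentrations descended in half-log increments from clinical Cmax or 10 microM.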

[1] = second compound 0.1 µM, first compound 0.00316 µM
[2] = second compound 0.1 µM, first compound 0.01 µM
[3] = second compound 0.1 µM, first compound 0.0316 µM
[4] = second compound 0.1 µM, first compound 0.1 µM
[5] = second compound 0.316 µM, first compound 0.00316 µM
[6] = second compound 0.316 µM, first compound 0.01 µM
[7] = second compound 0.316 µM, first compound 0.0316 µM
[8] = second compound 0.316 µM, first compound 0.1 µM
[9] = second compound 1 µM, first compound 0.00316 µM
[10] = second compound 1 µM, first compound 0.01 µM
[11] = second compound 1 µM, first compound 0.0316 µM
[12] = second compound 1 µM, first compound 0.1 µM
[13] = second compound 3.16 µM, first compound 0.00316 µM
[14] = second compound 3.16 µM, first compound 0.01 µM
[15] = second compound 3.16 µM, first compound 0.0316 µM
[16] = second compound 3.16 µM, first compound 0.1 µM
[17] = second compound 10 µM, first compound 0.00316 µM
[18] = second compound 10 µM, first compound 0.01 µM
[19] = second compound 10 µM, first compound 0.0316 µM
[20] = second compound 10 µM, first compound 0.1 µM

| SMILES | IC50 (second compound 0.1 µM) | IC50 (second compound 0.316 µM) | IC50 (second compound 1 µM) | IC50 (second compound 3.16 µM) | IC50 (second compound 10 µM) | viability, T/C [1] | viability, T/C [2] | viability, T/C [3] | viability, T/C [4] | viability, T/C [5] | viability, T/C [6] | viability, T/C [7] | viability, T/C [8] | viability, T/C [9] | viability, T/C [10] | viability, T/C [11] | viability, T/C [12] | viability, T/C [13] | viability, T/C [14] | viability, T/C [15] | other results |
| --- | --- | --- | --- | --- | --- | --- | --- | --- | --- | --- | --- | --- | --- | --- | --- | --- | --- | --- | --- | --- | --- |
| CC(C)CC(NC(=O)CNC(=O)c1cc(Cl)ccc1Cl)B1OC(=O)CC(CC(=O)O)(C(=O)O)O1 (stereo not given) + NC1CCC(NC2CC2c2ccccc2)CC1 | 12.9 nM | 12.8 nM | 13.1 nM | 13.4 nM | 11.7 nM | 100% | 59.5% | 15.6% | 6.56% | 102% | 58.7% | 16.7% | 6.02% | 102% | 61.5% | 12.8% | 6.77% | 103% | 60.6% | 16.9% | viability, T/C (second compound 0.1 µM, first compound 0.000316 µM): 102%; viability, T/C (second compound 0.1 µM, first compound 0.001 µM): 96.6%; viability, T/C (second compound 0.316 µM, first compound 0.000316 µM): 99.6%; viability, T/C (second compound 0.316 µM, first compound 0.001 µM): 102%; viability, T/C (second compound 1 µM, first compound 0.000316 µM): 104%; viability, T/C (second compound 1 µM, first compound 0.001 µM): 102%; viability, T/C (second compound 3.16 µM, first compound 0.000316 µM): 103%; viability, T/C (second compound 3.16 µM, first compound 0.001 µM): 98.1%; viability, T/C [16]: 5.71%; viability, T/C (second compound 10 µM, first compound 0.000316 µM): 97.9%; viability, T/C (second compound 10 µM, first compound 0.001 µM): 99.5%; viability, T/C [17]: 96.5%; viability, T/C [18]: 54.2%; viability, T/C [19]: 16.9%; viability, T/C [20]: 4.71% |
| COc1cc(Nc2ncc3c(n2)-c2ccc(Cl)cc2C(c2c(F)cccc2OC)=NC3)ccc1C(=O)O + NC1CCC(NC2CC2c2ccccc2)CC1 | 3.23 nM | 3.86 nM | 3.25 nM | 3.29 nM | < 3.16 nM | 51% | 21.1% | 20.4% | 17.8% | 55.8% | 22.6% | 22% | 19.3% | 51.4% | 21% | 23.4% | 16.7% | 51.1% | 21.3% | 23.7% | viability, T/C (second compound 0.1 µM, first compound 0.316 µM): 14.6%; viability, T/C (second compound 0.1 µM, first compound 1 µM): 10.7%; viability, T/C (second compound 0.316 µM, first compound 0.316 µM): 13.9%; viability, T/C (second compound 0.316 µM, first compound 1 µM): 11.1%; viability, T/C (second compound 1 µM, first compound 0.316 µM): 13.1%; viability, T/C (second compound 1 µM, first compound 1 µM): 12.1%; viability, T/C [16]: 21.4%; viability, T/C (second compound 3.16 µM, first compound 0.316 µM): 18.5%; viability, T/C (second compound 3.16 µM, first compound 1 µM): 12.1%; viability, T/C [17]: 46.5%; viability, T/C [18]: 22.1%; viability, T/C [19]: 25.6%; viability, T/C [20]: 24.6%; viability, T/C (second compound 10 µM, first compound 0.316 µM): 19.9%; viability, T/C (second compound 10 µM, first compound 1 µM): 12.6% |
